Laboratory results as given in the supplement of paper PMC10307832.

Key:
Experiment in all cases: relative viability (nuclei count vs DMSO), 5 days (fraction); higher = more cells survive
QS11 + Palbociclib = compound: C1CC2=C(C1)C=C(C=C2)OC3=NC(=C4C(=N3)N(C=N4)CC5=CC=C(C=C5)C6=CC=CC=C6)N[C@@H](CC7=CC=CC=C7)CO [QS11] + CC(=O)c1c(C)c2cnc(Nc3ccc(N4CCNCC4)cn3)nc2n(C2CCCC2)c1=O [Palbociclib] (partner 0.5 µM)
In short: (§1)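 Lung cancer cell lines were seeded in 1536-well plates and dosed by pin tool the next day, with either a single drug or a fixed anchor-drug dose combined with five library-drug doses (not always all listed) spaced in √10 steps. Five days later, one step fixed the cells and stained their nuclei (final 0.05% Triton X-100, 1% formaldehyde, 1 ug/ml Hoechst), and nuclei were counted on 4× images. Relative viability is the nuclei count in treated wells divided by the count in vehicle wells, and each value is the median of duplicate plates.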

QS11 + Bortezomib = compound: C1CC2=C(C1)C=C(C=C2)OC3=NC(=C4C(=N3)N(C=N4)CC5=CC=C(C=C5)C6=CC=CC=C6)N[C@@H](CC7=CC=CC=C7)CO [QS11] + CC(C)C[C@H](NC(=O)[C@H](Cc1ccccc1)NC(=O)c1cnccn1)B(O)O [Bortezomib] (partner 0.002 µM)
In short: as §1

AZ628 + Linsitinib = compound: CC1=C(C=C(C=C1)NC(=O)C2=CC(=CC=C2)C(C)(C)C#N)NC3=CC4=C(C=C3)N=CN(C4=O)C [AZ628] + C[C@]1(O)C[C@@H](c2nc(-c3ccc4ccc(-c5ccccc5)nc4c3)c3c(N)nccn32)C1 [Linsitinib] (partner 1 µM)
In short: as §1

Darinaparsin + OSI-027 = compound: C[As](C)SC[C@H](NC(=O)CC[C@H](N)C(=O)O)C(=O)NCC(=O)O [Darinaparsin] + COc1cccc2cc(-c3nc([C@H]4CC[C@H](C(=O)O)CC4)n4ncnc(N)c34)[nH]c12 [OSI-027] (partner 0.5 µM)
In short: as §1

Row | Cell Line | relative viability (QS11 + Palbociclib; first compound 0.08 µM) | relative viability (QS11 + Palbociclib; first compound 0.253 µM) | relative viability (QS11 + Palbociclib; first compound 0.8 µM) | relative viability (QS11 + Palbociclib; first compound 2.53 µM) | relative viability (QS11 + Palbociclib; first compound 8 µM) | relative viability (QS11 + Bortezomib; first compound 0.08 µM) | relative viability (QS11 + Bortezomib; first compound 0.253 µM) | relative viability (QS11 + Bortezomib; first compound 0.8 µM) | relative viability (QS11 + Bortezomib; first compound 2.53 µM) | relative viability (QS11 + Bortezomib; first compound 8 µM) | relative viability (AZ628 + Linsitinib; first compound 0.08 µM) | relative viability (AZ628 + Linsitinib; first compound 0.253 µM) | relative viability (AZ628 + Linsitinib; first compound 0.8 µM) | relative viability (AZ628 + Linsitinib; first compound 2.53 µM) | relative viability (AZ628 + Linsitinib; first compound 8 µM) | relative viability (Darinaparsin + OSI-027; first compound 0.08 µM) | relative viability (Darinaparsin + OSI-027; first compound 0.8 µM) | relative viability (Darinaparsin + OSI-027; first compound 2.53 µM) | relative viability (Darinaparsin + OSI-027; first compound 8 µM)
1 | LU99A | 0.421 | 0.469 | 0.437 | 0.4 | 0.395 | 0.878 | 1.37 | 1.17 | 1.11 | 0.706 | 0.485 | 0.444 | 0.686 | 0.678 | 0.274 | 0.311 | 0.298 | 0.337 | 0.271
2 | LXF-289 | 0.639 | 0.634 | 0.502 | 0.564 | 0.621 | 1 | 0.996 | 0.791 | 0.819 | 0.614 | 1.02 | 0.949 | 0.932 | 0.92 | 0.589 | 0.849 | 0.786 | 0.649 | 1.02
3 | NCI-H23 | 0.492 | 0.387 | 0.354 | 0.347 | 0.329 | 1.03 | 0.926 | 0.978 | 0.722 | 1 | 0.562 | 0.481 | 0.28 | 0.376 | 0.32 | 0.668 | 0.579 | 0.669 | 0.606
4 | NCI-H322M | 0.516 | 0.461 | 0.468 | 0.517 | 0.593 | 1.31 | 1.04 | 1.27 | 1.4 | 1.63 | 1.05 | 0.939 | 1.01 | 0.854 | 0.662 | 0.611 | 0.531 | 0.545 | 0.573
5 | NCI-H441 | 0.213 | 0.244 | 0.255 | 0.201 | 0.227 | 0.437 | 0.536 | 0.475 | 0.444 | 0.299 | 0.64 | 0.494 | 0.549 | 0.425 | 0.396 | 0.79 | 0.719 | 0.555 | 0.613
6 | NCI-H460 | 0.426 | 0.093 | 0.0461 | 0.0817 | 0.0731 | 1.04 | 1.13 | 0.819 | 0.973 | 0.345 | 0.74 | 0.694 | 0.658 | 0.523 | 0.154 | 0.98 | 0.753 | 0.537 | 1.19
7 | NCI-H520 | 0.211 | 0.208 | 0.268 | 0.208 | 0.204 |  | 0.593 | 0.541 | 0.479 | 0.471 | 1.08 | 1.03 | 0.872 | 1.01 | 0.62 | 0.362 | 0.302 | 0.185 | 0.302
8 | NCI-H647 | 0.412 | 0.367 | 0.394 | 0.325 | 0.394 | 0.938 | 0.987 | 0.976 | 1.08 | 0.894 | 1.36 | 1.27 | 1.07 | 1.19 | 1.05 | 0.625 | 0.59 | 0.545 | 1.08
9 | NCI-H650 | 0.328 | 0.34 | 0.304 | 0.286 | 0.327 | 0.681 | 0.625 | 0.815 | 0.819 | 0.888 | 1.09 | 0.911 | 1.25 | 0.952 | 0.78 | 0.584 | 0.531 | 0.533 | 0.604
10 | NCI-H661 | 0.379 | 0.374 | 0.332 | 0.402 | 0.34 | 0.718 | 0.685 | 0.685 | 0.912 | 0.919 | 0.474 | 0.523 | 0.49 | 0.517 | 0.443 | 0.722 | 0.677 | 0.658 | 0.69
11 | NCI-H727 | 0.694 | 0.73 | 0.698 | 0.637 | 0.699 | 0.804 | 0.72 | 0.893 | 0.739 | 0.35 | 0.194 | 0.2 | 0.225 | 0.282 | 0.201 | 0.77 | 0.541 | 0.794 | 0.854
12 | NCI-H838 | 0.213 | 0.187 | 0.191 | 0.223 | 0.213 | 0.942 | 0.641 | 0.684 | 0.851 | 0.923 | 0.995 | 0.977 | 1.11 | 0.896 | 0.883 | 0.401 | 0.34 | 0.458 | 0.428
13 | NCI-H1355 | 0.43 | 0.314 | 0.299 | 0.35 | 0.38 | 1.2 | 1.19 | 0.862 | 1.21 | 1.13 | 0.846 | 0.93 | 0.765 | 0.806 | 0.655 | 0.432 | 0.352 | 0.34 | 0.372
14 | NCI-H1437 | 0.299 | 0.351 | 0.239 | 0.287 | 0.239 | 0.569 | 0.325 | 0.459 | 0.402 | 0.336 | 0.966 | 0.846 | 0.958 | 0.779 | 0.848 | 0.955 | 0.897 | 0.935 | 1.01
15 | NCI-H1651 | 0.542 | 0.53 | 0.4 | 0.48 | 0.581 | 0.954 | 1.06 | 0.804 | 0.959 | 0.994 | 1.16 | 1.08 | 1.12 | 1.05 | 0.989 | 0.78 | 0.753 | 0.619 | 0.822
16 | NCI-H1666 | 0.641 | 0.651 | 0.586 | 0.621 | 0.516 | 0.83 | 0.722 | 0.74 | 0.719 | 0.564 | 0.809 | 0.57 | 0.551 | 0.753 | 0.553 | 0.926 | 0.827 | 0.847 | 0.982
17 | NCI-H1734 | 0.374 | 0.389 | 0.31 | 0.32 | 0.324 | 0.932 | 0.913 | 0.848 | 0.822 | 0.738 | 0.853 | 0.794 | 0.804 | 0.759 | 0.496 | 0.684 | 0.595 | 0.621 | 0.739
18 | NCI-H1755 | 0.461 | 0.476 | 0.399 | 0.402 | 0.427 | 0.953 | 0.893 | 0.605 | 0.76 | 0.61 | 0.993 | 0.956 | 0.941 | 0.937 | 0.883 | 0.725 | 0.691 | 0.686 | 0.841
19 | NCI-H1792 | 0.679 | 0.886 | 0.491 | 0.667 | 0.741 |  | 1.06 | 0.684 | 1.01 | 1.07 | 0.583 | 0.54 | 0.435 | 0.48 | 0.339 | 0.847 | 0.604 | 0.866 | 0.96
20 | NCI-H1915 | 0.53 | 0.644 |  | 0.5 | 0.486 | 0.985 | 1.08 |  | 0.967 | 0.979 | 1.08 | 1.11 | 1.07 | 0.85 | 0.683 | 0.741 | 0.649 | 0.644 | 0.749
21 | NCI-H1975 | 0.555 | 0.531 | 0.58 | 0.74 | 0.733 | 0.333 | 0.403 | 0.541 | 0.364 | 0.3 | 0.908 | 0.949 | 0.895 | 0.904 | 0.647 | 0.971 | 0.742 | 0.544 | 0.961
22 | NCI-H1993 | 0.646 | 0.544 | 0.59 | 0.708 | 0.641 | 0.959 | 1 | 1.04 | 1.35 | 0.998 | 0.761 | 0.59 | 0.716 | 0.824 | 0.711 | 0.542 | 0.527 | 0.493 | 0.551
23 | NCI-H2009 | 0.203 | 0.233 | 0.209 | 0.181 | 0.17 | 0.999 | 0.898 | 0.739 | 0.802 | 0.755 | 1.06 | 0.973 | 0.724 | 1.05 | 0.358 | 0.61 | 0.657 | 0.584 | 0.587
24 | NCI-H2023 | 0.42 | 0.397 | 0.302 | 0.36 | 0.29 | 0.917 | 0.996 | 0.877 | 0.994 | 0.898 | 0.723 | 0.677 | 0.72 | 0.758 | 0.358 | 0.483 | 0.364 | 0.33 | 0.486
25 | NCI-H2085 | 0.474 | 0.509 | 0.402 | 0.433 | 0.475 | 0.952 | 1.03 | 1.16 | 1.06 | 1 | 0.851 | 0.939 | 0.972 | 0.879 | 0.781 | 0.778 | 0.806 | 0.762 | 0.673
26 | NCI-H2087 | 0.249 | 0.27 | 0.247 | 0.2 | 0.197 | 0.766 | 0.776 | 0.677 | 0.636 | 0.48 | 0.818 | 0.613 | 0.728 | 0.65 | 0.343 | 0.604 | 0.67 | 0.527 | 0.705
27 | NCI-H2126 | 0.345 | 0.381 | 0.341 | 0.343 | 0.304 | 1.1 | 1.07 | 0.882 | 1.22 | 0.904 | 0.762 | 0.746 | 0.776 | 0.721 | 0.664 | 0.726 | 0.764 | 0.635 | 0.639
28 | NCI-H2228 | 0.753 | 0.741 | 1.06 | 0.641 | 1.01 | 0.974 | 1.04 | 1.15 | 1.26 | 1.12 | 0.504 | 0.686 | 0.622 | 1.1 | 0.517 | 0.778 | 0.5 | 0.483 | 0.78
